Entries after “also recorded” stand apart in the source; their conditions may differ.
Assays:
[1] = test system: H3K4 trimethylation and histone acetylation; details: Huang et al. (2011); cited from earlier work
[2] = test system: H3K4 trimethylation activity in Kmt2d^+/βGeo and Kmt2d^+/+ MEFs; assay: H3K4me3 indicator in murine embryonic fibroblasts (MEFs); assay type: cell-based, mouse; details: Kmt2d^+/βGeo cells treated with HDAC inhibitor
Description: An H3K4 trimethylation reporter was also created. This reporter is based on the H3 tail on one end and the TBP associated factor III (TAFIII) homeodomain on the other end; the TAFIII homeodomain only identifies and binds to trimethylated K4 on H3. When the H3K4 site gets trimethylated, the TAFIII homeodomain can bind to the modified H3 tail and bring the two parts of the separated GFP in close proximity. The activity of the epigenetic modification system can be quantified through fluorescence.
(§1) Epigenetic reporter alleles: Epigenetic reporter alleles were synthesized (OriGene, Rockville, Md.) using published sequences for component elements (Baird et al. (1999) Proc. Nail. Acad. Sci. 96:11241-6; Souslova et al. (2007) BMC Biotechnol. 7:37). Single nucleotide mutations were created using the QuickChange Lightening kit (Agilent Technologies Inc, Santa Clara, Calif.). For H4ac indicator, K5R, K8R, K12R, K16R and K20R (MUT indicator) were introduced. For H3K4me3 indicator, K4Q and D890A/W891A and M882A (three separate constructs) were introduced. For transient transfections, mouse embryonic fibroblasts (see below) were transfected with Fugene HD (Promega, Madison, Wis.), 48 hours prior to FACS. […] For drug stimulation, drug was added to the media 24 hours prior to FACS. For stable transfections in T293 (American Type Culture Collection) cells, 10 μg/ml of Blastocidin (Life Technologies, Carlsbad, Calif.) was added to the media for several weeks. For stable transfection in MEFs, the reporter was transferred to a ViraPower Lentiviral Expression System (Life Technologies, Carlsbad, Calif.). After selection with Blastocidin, the drug of interest was added 24 hours prior to FACS. SAHA, AR-42 and MS275 were purchased from Selleck (Selleck Chemicals, Houston, Tex.). […] FACS data were analyzed using FlowJo (Tree Star Inc, Ashland, Oreg.). A plasmid expressing HDAC3 was acquired from Addgene (Cambridge, Mass., plasmid 13819) and transfected into a stable cell line carrying the H4 acetyl reporter allele.

[3] = test system: H4ac indicator (H4 acetylation machinery activity) in HEK293 cells; assay: H4ac (acetylation) indicator reporter assay, FACS; assay type: cell-based
Description: Design of the indicator constructs. A genetically encoded histone reporter allele system has been developed which can be used to monitor activity of any histone maintenance machinery component in live cells. Previously, FRET based epigenetic activity systems have been created (Lin and Ting (2004) Angew Chem Int Ed Engl. 24;43 (22):2940-3; Lin et al. (2004) J. Am. Chem. Soc. 19;126(19):5982-3; U.S. Pat. No. 7,056,683). However, FRET-based assays need a complex technological setup which is not widely available and FRET-based assays have been much more difficult to introduce into transgenic mouse models. […] The particular construct design is based on a circularly permutated green fluorescent protein (GFP) that lacks fluorescence unless the two parts of GFP are brought into close proximity by external forces (Baird et al. (1999) Proc. Natl. Acad. Sci. U.S.A. 28;96(20):11241-6). The constructs are targeted to the nucleus through a nuclear localization signal (NLS). Mutants were also created that knocked out the activity of the indicator allele.
The acetyl reporter protein quantifies the activity of the acetylation machinery (acetylation of H4 specifically at the 5th, 8th, 12th and 16th Lysine's) and comprises an H4 tail on one end (the target for acetylation) and a TBP associated factor II (TAFII) bromodomain on the other end of the reporter protein. The TAFII bromodomain only recognizes and binds to the acetylated H4 tail, resulting in reconstitution of GFP structure and function (i.e. fluorescence). Therefore, the reporter protein has no fluorescence unless it is acetylated by the acetylation system of the nucleus of the cell.
as §1

[4] = test system: DCX positive cells in the GCL; assay: Doublecortin positive fraction of the GCL (Example 2); assay type: in vivo, mouse; details: 10 mM/kg/day IP, two weeks, sodium salt
Protocol: Perfusion, sectioning and, staining: For perfusion, cryosectioning and immunofluorescence staining, see Bjornsson et al. (2014). EdU (Life Sciences) in PBS/6% DMSO (10 mg/ml) injections (50 μg/g/day) were performed either with seven consecutive days followed by immediate perfusion or seven consecutive days of injection and then perfusion on the 30th day after the first injection. […] EdU was imaged with Click-iT EdU Alexa Flour 488 Imaging Kit (Invitrogen) as well as DAPI mounting with Vectamount (Vector Laboratories, Burlingame, Calif.). EdU quantification was done blinded to genotype. Labeled cells were counted in every sixth slice in the granule cell layer of the dentate gyrus and average number per slice was calculated for each brain. For immunofluorescence, primary antibodies included Doublecortin (Santa Cruz Biotechnology, 1:200 goat), trimethylated H3K4 (Cell Signaling, Danvers, Mass.; 1:500 rabbit), and Acetylated H3K9 and […] (Cell Signaling, 1:5000). Primary antibodies were incubated overnight at 4° C. in blocking buffer. Doublecortin area measurement: The DCX positive fraction of the GCL was measured by taking 4× pictures and using the Bezier tool on NS elements 2.0 software (Nikon) to measure the area of cells that expressed DCX as well as the entire granule cell layer.

[5] = test system: H4ac indicator in HEK 293 cells; assay: H4ac indicator experiment with BHB, FACS; assay type: cell-based; details: 24 hours before FACS; sodium salt
Protocol: (§2) Indicator experiments: HEK 293 cells were transfected with lipofectamine LTX (Invitrogen, Carlsbad, Calif.) with either the H3K4me3 indicator or the H4ac indicator, synthesized by OriGene Technologies (Rockville, Md.). Stable transfections were maintained through positive selection with blastacidin […] (Life Technologies, Grand Island, N.Y.). For BHB treatment, (R)-(−)-3-Hydroxybutyric acid sodium salt (Santa Cruz Biotechnology) was added to the medium 24 hours before FACS analysis (FACSVerse, BD Biosciences, Franklin Lakes, N.J.). Data was analyzed using FlowJo (Tree Star Inc., Ashland, Oreg.).

EdU+ cells in the GCL = assay: EdU incorporation in the GCL (proliferation / survival); assay type: in vivo, mouse; details: 10 mM/kg/day IP, two weeks, sodium salt
Description: Animals and treatment: The mouse model, Kmt2d^+/βGeo, also known as (Mll2Gt^(RRt024)Byg), was generated by BayGenomics (University of California, CA) through insertion of a gene trapped vector, and was used on a fully backcrossed C57BL/6J background. The original unbalanced (6:1 fat to protein ration) diet was purchased from Bio-Sery (Ketogenic Diet AIN-76A-Modified High Fat Paste F3666; Flemington, N.J.), while the balanced diet (4:1 ratio) was also from Bio-Serv (F6689 Rodent Diet, Ketogenic, Fat: Paste). Mice were treated for two weeks on the diet, with the paste replaced several times a week. During MWM testing, given the length of testing (week), the mice were treated for three weeks.
BHB injection and BHB assay: For injections into mice, (R)-(−)-3-hydroxybutyric acid sodium salt (Santa Cruz Biotechnology, Dallas, Tex.) was used at an experimental dose of (10 mM/kg). To detect BHB in the urine (from either injections or ketogenic diet), the β-Hydroxybutyrate (Ketone Body) Colorimetric Assay Kit (Cayman Chemical Company, Ann Arbor, Mich.) was used. […]
Perfusion, sectioning and, staining: For perfusion, cryosectioning and immunofluorescence staining, see Bjornsson et al. (2014). […] EdU quantification was done blinded to genotype. Labeled cells were counted in every sixth slice in the granule cell layer of the dentate gyrus and average number per slice was calculated for each brain. […]

[6] = test system: H3K4me3 indicator in HEK 293 cells; assay: H3K4me3 indicator experiment with BHB, FACS; assay type: cell-based; details: 24 hours before FACS; sodium salt
Protocol: as §2

[7] = BHB in urine, colorimetric assay; assay type: in vivo, mouse
Protocol: BHB injection and BHB assay: For injections into mice, (R)-(−)-3-hydroxybutyric acid sodium salt (Santa Cruz Biotechnology, Dallas, Tex.) was used at an experimental dose of (10 mM/kg). To detect BHB in the urine (from either injections or ketogenic diet), the β-Hydroxybutyrate (Ketone Body) Colorimetric Assay Kit (Cayman Chemical Company, Ann Arbor, Mich.) was used. Urine from injections was drawn approximately 2 hours after injection and urine from mice on the ketogenic diet was taken in the early afternoon (unless otherwise stated in the text).

Q: Which “effect on H3K4 trimethylation and histone acetylation” value [1] does the source give for Nc1ccccc1NC(=O)c1ccc(CNC(=O)OCc2cccnc2)cc1 [MS275, Pyridin-3-ylmethyl N-[[4-[(2-aminophenyl)carbamoyl]phenyl]methyl]carbamate] here?
A: increase H3K4 trimethylation and histone acetylation

Q: And the H3K4 trimethylation activity [2]?
A: enhanced; also recorded: improved

Q: Which “cells easily discriminated from auto fluorescence (H4ac indicator)” value (from here on “cells easily discriminated”) ([3]; 1 μM of SAHA) does the source give for O=C(CCCCCCC(=O)Nc1ccccc1)NO [SAHA, N′-hydroxy-N-phenyl-octanediamide] here?
A: 5%

Q: And the “cells easily discriminated” value ([3]; 2.5 μM of SAHA)?
A: 20%

Q: What about the “cells easily discriminated” value ([3]; 7.5 μM of SAHA) of the same compound?
A: 40%

Q: What about the “cells easily discriminated” value ([3]; 10 μM of SAHA) of the same compound?
A: 45%

Q: What about the “fluorescence response of acetylation indicator to increasing amounts of drug” value ([3]; FACS, culture systems) of the same compound?
A: linear fluorescence response; also recorded: increasing fluorescence

Q: And the “acetylation of the indicator” value ([3]; FIG. 18A)?
A: increases acetylation of the indicator

Q: What about the “H4ac indicator signal upon stimulation” value ([3]; HEK293 cells stably expressing the H4ac indicator) of the same compound?
A: increased signal

Q: For C[C@@H](O)CC(=O)[O-].[Na+] [BHB, (R)-(−)-3-hydroxybutyric acid sodium salt], which “DCX positive cells, treated Kmt2d^+/βGeo versus treated Kmt2d^+/+” value [4] is on record?
A: not to Kmt2d^+/+ BHB treated levels; also recorded: did not lead to a full recovery

Q: And the “DCX positive cells, treated versus vehicle” value ([4]; Kmt2d^+/βGeo)?
A: increase in DCX expression; also recorded: significant increase in DCX positive cells

Q: And the “H4Ac indicator response to increased amounts in culture media” value [5]?
A: dose-dependent increased activity; also recorded: dose-dependent response

Q: What about the “EdU positive cells, treated Kmt2d^+/βGeo versus Kmt2d^+/+” value (EdU+ cells in the GCL) of the same compound?
A: did not recover back; also recorded: did not lead to a full recovery

Q: What about the “EdU positive cells (proliferation), treated versus vehicle” value (EdU+ cells in the GCL; Kmt2d^+/βGeo) of the same compound?
A: significant increase in EdU expression; also recorded: significant increase in EdU positive cells

Q: And the “H3K4me3 indicator response to increased amounts in culture media” value [6]?
A: dose-dependent increased activity; also recorded: dose-dependent response

Q: And the “BHB level in the urine over a 12 hour day after one injection” value ([7]; 10 mM/kg at 9 AM)?
A: decreased to vehicle injected levels over a matter of hours

Q: What about the “BHB level in the urine after injection” value ([7]; 10 mM/kg, urine after 1.5 hours) of the same compound?
A: most similar to treatment with a ketogenic diet

Q: What about the “time of maximal drug activity” value ([7]; after injection) of the same compound?
A: 1.5 h
